Source: EP0128651A2, “Pyranones and related compounds and methods for their production and use” (WARNER-LAMBERT COMPANY, priority 1983, dated 1984)
Values after ≈ are worked out from the molar mass of the structure shown. Marks after values point to notes of the source that are not given here.

Experiments:
L1210 Cells = assay: Cytotoxicity against L1210 cells; assay type: cell-based; conditions: Mus musculus, read-out: ID50 (the source's name)
Mouse Leukemia P3888 = assay: Animal tumor screening, mouse leukemia P388; assay type: in vivo; design: key: -X= Borderline activity shown.; X= Activity shown. The initial endpoint is less stringent and is indicative of statistical significance.; XX= Outstanding activity shown and a proportion of "cures" produced. The stringent endpoint is indicative of sufficient antitumor selectivity to warrant consideration for development toward clinical trial.; No= No activity shown
Mouse Leukemia L1210 = assay: Animal tumor screening, response of L1210 leukemia in mice; assay type: in vivo; design: key to Activiity: -X= Borderline activity shown.; X= Activity shown. The initial endpoint is less stringent and is indicative of statistical significance.; XX= Outstanding activity shown and a proportion of "cures" produced. The stringent endpoint is indicative of sufficient antitumor selectivity to warrant consideration for development toward clinical trial.; No= No activity shown; conditions: for T/C(%) / "Cures": Daily x 9
Mouse Colon 38 = assay: Animal tumor screening, mouse colon 38; assay type: in vivo; design: key: -X= Borderline activity shown.; X= Activity shown. The initial endpoint is less stringent and is indicative of statistical significance.; XX= Outstanding activity shown and a proportion of "cures" produced. The stringent endpoint is indicative of sufficient antitumor selectivity to warrant consideration for development toward clinical trial.; No= No activity shown
Mouse Melanoma B16 = assay: Animal tumor screening, mouse melanoma B16; assay type: in vivo; design: key: -X= Borderline activity shown.; X= Activity shown. The initial endpoint is less stringent and is indicative of statistical significance.; XX= Outstanding activity shown and a proportion of "cures" produced. The stringent endpoint is indicative of sufficient antitumor selectivity to warrant consideration for development toward clinical trial.; No= No activity shown
Mouse Mammary CD8F1 = assay: Animal tumor screening, mouse mammary CD8F1; assay type: in vivo; design: key: -X= Borderline activity shown.; X= Activity shown. The initial endpoint is less stringent and is indicative of statistical significance.; XX= Outstanding activity shown and a proportion of "cures" produced. The stringent endpoint is indicative of sufficient antitumor selectivity to warrant consideration for development toward clinical trial.; No= No activity shown; conditions: treatment started 34 days after tumor implant (advanced-stage tumor)
Mluse Lewis Lung = assay: Animal tumor screening, mouse Lewis lung; assay type: in vivo; design: key: -X= Borderline activity shown.; X= Activity shown. The initial endpoint is less stringent and is indicative of statistical significance.; XX= Outstanding activity shown and a proportion of "cures" produced. The stringent endpoint is indicative of sufficient antitumor selectivity to warrant consideration for development toward clinical trial.; No= No activity shown
Human Mammary Xenograft = assay: Animal tumor screening, human mammary xenograft; assay type: in vivo; design: key: -X= Borderline activity shown.; X= Activity shown. The initial endpoint is less stringent and is indicative of statistical significance.; XX= Outstanding activity shown and a proportion of "cures" produced. The stringent endpoint is indicative of sufficient antitumor selectivity to warrant consideration for development toward clinical trial.; No= No activity shown
Human Lung Xenograft = assay: Animal tumor screening, human lung xenograft; assay type: in vivo; design: key: -X= Borderline activity shown.; X= Activity shown. The initial endpoint is less stringent and is indicative of statistical significance.; XX= Outstanding activity shown and a proportion of "cures" produced. The stringent endpoint is indicative of sufficient antitumor selectivity to warrant consideration for development toward clinical trial.; No= No activity shown

## CC(O)(C=CC1CC=CC(=O)O1)C(O)CC(O)C=CC=CC=CCO (stereo not shown) [CL 1565-A alcohol, 5,6-Dihydro-6-(3,4,6,13-tetrahydroxy-3-methyl-l,7,9, 11-tridecatetraenyl)-2H-pyran-2-one]
L1210 Cells
  IC50: 2.5 µg/mL (≈ 7.13 µM)

## CC(=O)OCC=CC=CC=CC(CC(OP(=O)(O)O)C(C)(O)C=CC1CC=CC(=O)O1)OC(C)=O.[Na] (stereo not shown) [CL 1565-A Diacetate, Sodium Salt, 6-[6,13-Bis(acetyloxy)-3-hydroxy-3-methyl-4-(phosphonooxy)-1,7,9,11-tridecatetraenyl]-5,6-dihydro-2H-pyran-2-one, sodium salt]
L1210 Cells
  IC50: ~6 µg/mL

## CC(O)(C=CC1CC=CC(=O)O1)C(CC(O)C=CC=CC=CCO)OP(=O)(O)O (stereo not shown) [CL 1565-A, 5,6-dihydro-6-(3,6,13-trihydroxy-3-methyl-4-(phosphonooxy)-1,7,9,11-tridecatetraenyl)-2H-pyran-2-one]
Mouse Leukemia P3888
  Activiity: X
Mouse Leukemia L1210; Mouse Leukemia L1210
  Activiity: XX (curative)
Mouse Leukemia L1210; Test 1, 6.25 mg/kg/dose
  T/C(%): 207%
Mouse Leukemia L1210; Test 1, 6.25 mg/kg/dose, 30-day survivors are considered cures
  "Cures": 0/6^e
Mouse Leukemia L1210; Test 2, 3.12 mg/kg/dose
  T/C(%): 191%
Mouse Leukemia L1210; Test 2, 3.12 mg/kg/dose, survivors at completion of observation period
  "Cures": 0/6
Mouse Leukemia L1210; Test 2, 6.25 mg/kg/dose
  T/C(%): 194%
Mouse Leukemia L1210; Test 2, 6.25 mg/kg/dose, survivors at completion of observation period
  "Cures": 1/6
Mouse Leukemia L1210; Test 2, 12.50 mg/kg/dose
  T/C(%): 337%
Mouse Leukemia L1210; Test 2, 12.50 mg/kg/dose, survivors at completion of observation period
  "Cures": 3/6
Mouse Leukemia L1210; Test 3, 1.56 mg/kg/dose
  T/C(%): 150%
Mouse Leukemia L1210; Test 3, 1.56 mg/kg/dose, survivors at completion of observation period
  "Cures": 0/6
Mouse Leukemia L1210; Test 3, 3.12 mg/kg/dose
  T/C(%): 195%
Mouse Leukemia L1210; Test 3, 3.12 mg/kg/dose, survivors at completion of observation period
  "Cures": 0/6
Mouse Leukemia L1210; Test 3, 6.25 mg/kg/dose
  T/C(%): 216%
Mouse Leukemia L1210; Test 3, 6.25 mg/kg/dose, survivors at completion of observation period
  "Cures": 0/6
Mouse Leukemia L1210; Test 3, 12.50 mg/kg/dose
  T/C(%): 246%
Mouse Leukemia L1210; Test 3, 12.50 mg/kg/dose, 45-day observation period
  "Cures": 0/6^f
Mouse Leukemia L1210; Test 4, 3.12 mg/kg/dose
  T/C(%): 194%
Mouse Leukemia L1210; Test 4, 3.12 mg/kg/dose, survivors at completion of observation period
  "Cures": 0/6
Mouse Leukemia L1210; Test 4, 6.25 mg/kg/dose
  T/C(%): 236%
Mouse Leukemia L1210; Test 4, 6.25 mg/kg/dose, survivors at completion of observation period
  "Cures": 1/6
Mouse Leukemia L1210; Test 4, 12.50 mg/kg/dose
  T/C(%): 268%
Mouse Leukemia L1210; Test 4, 12.50 mg/kg/dose, survivors at completion of observation period
  "Cures": 0/6^g
Mouse Leukemia L1210; result in words
  curative effect in the L1210 tumor mouse model: curative
  survival period of mice inoculated with mouse leukemia L1210: significantly prolongs the survival period
Mouse Colon 38
  Activiity: X
Mouse Melanoma B16
  Activiity: No
Mouse Mammary CD8F1
  Activiity: Xa
Mluse Lewis Lung
  Activiity: No
Human Mammary Xenograft
  Activiity: -X
Human Lung Xenograft
  Activiity: No
